Source: ChEMBL document CHEMBL1201862, “PubChem BioAssay data set” (2004)
The source made the active and inactive calls.

Legend:
[1] = HEK-293T viability loss after treatment – luminescence, T-cell screen hits, cytotoxicity control for TCR NF-kB inhibitor project, dose response (AID 489026); type: functional, cell-based;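 note: cells exposed to compound about 14 hours before the viability readout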
[2] = decrease of insulin promoter-GFP reporter – imaging, high-content screening, mouse beta cells (AID 1628); type: functional; settings: MIN6
[3] = reduction of Shn3 3'UTR-driven luciferase in osteoblasts – cell-based, Clone20 osteoblasts, firefly luciferase, cherry-picked, dose response (AID 624132); type: functional;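 note: firefly luciferase luminescence from reporter carrying the Shn3 3'UTR in osteoblasts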
[4] = loss of viability in HepG2 cells – cell-based, CellTiter-Glo, cherry-picked, cytotoxicity control for Shn3 inhibitor project, dose response (AID 624134); type: functional
INS1 = experiment: INS-1E survival protection against cytokine death – cell-based, luminescence, retest, dose response (AID 449756); type: functional; settings: Rattus norvegicus;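 note: cell death triggered by IL-1 beta plus TNF-alpha plus IFN-gamma mixture; protective hits raise ATP signal compared with cytokine alone wells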
[5] = target: T1, COUP transcription factor 2 (Homo sapiens, UniProt P24468); experiment: Luminescence-based cell-based high throughput dose response assay to identify inhibitors of COUP-TFII (NR2F2).; type: functional;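 note: HEK293 cells transiently cotransfected with COUP-TFII expression vector and reporter; luciferase reporter luminescence driven by COUP-TFII from the pX2-168 reporter plasmid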
T1 sequence (P24468 whole entry): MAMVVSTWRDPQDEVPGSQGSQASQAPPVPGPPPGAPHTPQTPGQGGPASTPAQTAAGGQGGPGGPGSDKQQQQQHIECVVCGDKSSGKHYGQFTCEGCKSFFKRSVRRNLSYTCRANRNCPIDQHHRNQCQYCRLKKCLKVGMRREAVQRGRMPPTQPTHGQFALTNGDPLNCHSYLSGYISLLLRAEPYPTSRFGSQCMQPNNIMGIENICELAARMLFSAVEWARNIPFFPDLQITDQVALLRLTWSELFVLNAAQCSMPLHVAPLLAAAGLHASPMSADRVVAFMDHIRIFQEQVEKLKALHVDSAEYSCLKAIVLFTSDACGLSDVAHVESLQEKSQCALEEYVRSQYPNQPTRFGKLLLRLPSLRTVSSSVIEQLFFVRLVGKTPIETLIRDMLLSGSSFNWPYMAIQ

[6] = non-specific 3'UTR reporter inhibition in Clone20-Shn3RL – cell-based, Renilla luciferase, cherry-picked, counter-screen for Shn3 inhibitor project, dose response (AID 624133); type: functional
[7] = MIN6 cell viability loss – mouse insulinoma, cytotoxicity control, dose response (AID 2122); type: functional;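 note: confirmatory high-throughput counterscreen run to flag cytotoxic compounds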
Escherichia coli [8] = experiment: microbe, parasite or virus in culture
Escherichia coli [9] = experiment: microbe, parasite or virus in culture; remark: listed apart in the source
HEK293 [10] = experiment: cells; settings: Homo sapiens
[11] = target: Nucleotide-binding oligomerization domain-containing protein 1 (Homo sapiens, UniProt Q9Y239); experiment: blockers of NOD1 pathway activity – revised, SAR follow-up (AID 2333); type: functional
Nucleotide-binding oligomerization domain-containing protein 1, sequence (Q9Y239 whole entry, the tested form may be a part): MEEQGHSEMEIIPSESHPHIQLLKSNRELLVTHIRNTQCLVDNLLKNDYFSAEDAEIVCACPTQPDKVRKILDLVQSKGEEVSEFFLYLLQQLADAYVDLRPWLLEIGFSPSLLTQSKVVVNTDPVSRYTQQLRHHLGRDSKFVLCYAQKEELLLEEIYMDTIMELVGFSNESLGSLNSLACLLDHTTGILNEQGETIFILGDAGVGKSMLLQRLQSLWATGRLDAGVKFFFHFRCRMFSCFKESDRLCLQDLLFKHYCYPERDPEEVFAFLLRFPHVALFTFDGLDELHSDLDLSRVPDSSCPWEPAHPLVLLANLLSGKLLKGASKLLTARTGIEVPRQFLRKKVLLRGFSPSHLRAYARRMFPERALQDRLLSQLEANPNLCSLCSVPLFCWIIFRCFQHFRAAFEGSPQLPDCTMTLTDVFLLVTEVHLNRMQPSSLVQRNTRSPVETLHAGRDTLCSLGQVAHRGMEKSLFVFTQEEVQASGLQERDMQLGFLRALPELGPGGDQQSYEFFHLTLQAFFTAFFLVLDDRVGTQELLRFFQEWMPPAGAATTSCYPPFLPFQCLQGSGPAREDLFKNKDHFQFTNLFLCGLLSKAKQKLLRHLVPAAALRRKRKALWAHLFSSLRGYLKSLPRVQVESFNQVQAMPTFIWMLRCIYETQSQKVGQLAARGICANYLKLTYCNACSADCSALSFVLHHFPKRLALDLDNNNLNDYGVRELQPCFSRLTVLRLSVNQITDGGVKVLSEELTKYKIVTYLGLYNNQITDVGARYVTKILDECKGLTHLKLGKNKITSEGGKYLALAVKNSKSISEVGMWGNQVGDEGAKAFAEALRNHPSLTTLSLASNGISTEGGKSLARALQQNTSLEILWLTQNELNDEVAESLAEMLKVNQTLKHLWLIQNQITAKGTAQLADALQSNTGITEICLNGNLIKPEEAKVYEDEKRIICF

HEK293 [12] = experiment: cells; type: functional, cell-based; settings: Homo sapiens
HEK293 [13] = experiment: inhibition of NOD1-driven NF-kB reporter – cell-based, luminescence, uHTS, primary screen (AID 1578); type: functional; settings: Homo sapiens
HEK293 [14] = experiment: NOD2 signaling inhibitors in MDP-stimulated cells, cell-based, uHTS, luminescence (AID 2001); type: functional; settings: Homo sapiens
Tumor necrosis factor = Tumor necrosis factor (Homo sapiens, UniProt P01375); experiment: analog potency on TNFa NF-kB signaling – cell-based, revised, SAR follow-up (AID 2337); type: functional
Tumor necrosis factor, sequence (P01375 whole entry, the tested form may be a part): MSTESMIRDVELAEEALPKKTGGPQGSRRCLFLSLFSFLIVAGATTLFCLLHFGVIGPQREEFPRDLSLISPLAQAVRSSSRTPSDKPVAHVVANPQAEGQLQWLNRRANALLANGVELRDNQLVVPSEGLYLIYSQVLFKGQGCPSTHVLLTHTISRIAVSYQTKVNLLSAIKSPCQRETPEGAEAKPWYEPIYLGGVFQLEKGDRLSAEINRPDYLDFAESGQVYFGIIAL

[15] = target: Nucleotide-binding oligomerization domain-containing protein 2 (Homo sapiens, UniProt Q9HC29); experiment: inhibition of NOD2-driven NF-kB reporter – cell-based, luminescence, uHTS, HEK293 (AID 1566); type: functional
Nucleotide-binding oligomerization domain-containing protein 2, sequence (Q9HC29 whole entry, the tested form may be a part): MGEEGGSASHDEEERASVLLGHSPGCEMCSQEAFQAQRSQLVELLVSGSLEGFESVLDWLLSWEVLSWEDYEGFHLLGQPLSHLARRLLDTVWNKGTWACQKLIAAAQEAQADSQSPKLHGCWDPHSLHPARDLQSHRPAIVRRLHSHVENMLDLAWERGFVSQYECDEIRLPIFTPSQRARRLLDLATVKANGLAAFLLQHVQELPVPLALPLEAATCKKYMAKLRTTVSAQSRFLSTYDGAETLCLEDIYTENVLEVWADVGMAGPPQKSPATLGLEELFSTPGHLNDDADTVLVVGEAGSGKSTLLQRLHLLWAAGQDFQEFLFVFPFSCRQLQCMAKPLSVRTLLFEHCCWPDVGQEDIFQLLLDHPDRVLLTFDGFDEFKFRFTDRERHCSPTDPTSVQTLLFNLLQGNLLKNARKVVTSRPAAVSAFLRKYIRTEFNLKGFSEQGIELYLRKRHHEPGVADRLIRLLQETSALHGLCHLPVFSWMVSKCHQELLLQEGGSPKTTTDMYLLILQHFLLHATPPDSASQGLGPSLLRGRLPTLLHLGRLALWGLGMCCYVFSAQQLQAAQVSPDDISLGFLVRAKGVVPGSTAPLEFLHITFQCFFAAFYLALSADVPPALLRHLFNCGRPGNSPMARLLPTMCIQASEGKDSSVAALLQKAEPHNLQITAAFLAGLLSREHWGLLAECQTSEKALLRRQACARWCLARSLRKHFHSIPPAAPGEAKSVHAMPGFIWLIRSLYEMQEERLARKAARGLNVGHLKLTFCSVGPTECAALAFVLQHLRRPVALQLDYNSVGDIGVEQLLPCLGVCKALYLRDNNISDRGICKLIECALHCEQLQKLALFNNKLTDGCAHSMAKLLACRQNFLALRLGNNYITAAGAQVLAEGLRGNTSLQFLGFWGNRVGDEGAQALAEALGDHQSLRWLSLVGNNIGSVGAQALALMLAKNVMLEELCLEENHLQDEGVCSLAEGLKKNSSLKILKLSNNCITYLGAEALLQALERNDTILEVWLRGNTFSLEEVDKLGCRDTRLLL

HEK293 [16] = experiment: cells; type: functional, cell-based; settings: Homo sapiens; remark: listed apart in the source
HEK293 [17] = experiment: cells; type: functional, cell-based; settings: Homo sapiens; remark: listed apart in the source
H9c2 = experiment: cells; type: functional, cell-based; settings: Rattus norvegicus, H9c2, Myocardium;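 note: confirmatory concentration-response retest of ultra-high-throughput screening hits for modulation of myocardial damage; cell death induced by hydrogen peroxide oxidative stress; compound pretreatment for 60 min then peroxide exposure for 2 h; potency is for protecting the cells against peroxide damage rather than for killing them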
Mu-type opioid receptor = Mu-type opioid receptor (Homo sapiens, UniProt P35372); experiment: Counterscreen for agonists of heterodimerization of the mu 1 (OPRM1) and delta 1 (OPRD1) opioid receptors: Luminescence-based cell-based high throughput dose response assay to identify agonists of OPRM1 homodimerization.; type: functional;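 note: U2OS cells expressing OPRM1 and beta-arrestin as split beta-galactosidase partners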
Mu-type opioid receptor, sequence (P35372 whole entry): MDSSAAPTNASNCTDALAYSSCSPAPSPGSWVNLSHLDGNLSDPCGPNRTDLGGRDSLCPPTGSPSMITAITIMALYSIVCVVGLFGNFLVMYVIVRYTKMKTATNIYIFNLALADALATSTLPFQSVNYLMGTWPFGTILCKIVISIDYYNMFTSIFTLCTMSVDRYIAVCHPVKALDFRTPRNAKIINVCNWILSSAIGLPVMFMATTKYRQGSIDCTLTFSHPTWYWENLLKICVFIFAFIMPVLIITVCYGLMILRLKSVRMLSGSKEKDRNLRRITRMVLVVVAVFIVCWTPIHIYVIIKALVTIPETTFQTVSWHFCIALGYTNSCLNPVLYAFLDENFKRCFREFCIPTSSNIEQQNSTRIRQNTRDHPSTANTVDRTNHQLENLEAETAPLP

[18] = target: T2, Short transient receptor potential channel 4 (Mus musculus, UniProt Q9QUQ5); experiment: calcium entry via TRPC4 opening agents – cell-based, HEK293 TRPC4/mu-opioid, Fluo-4 calcium, dose response (AID 434937); type: functional
T2 sequence (Q9QUQ5 whole entry): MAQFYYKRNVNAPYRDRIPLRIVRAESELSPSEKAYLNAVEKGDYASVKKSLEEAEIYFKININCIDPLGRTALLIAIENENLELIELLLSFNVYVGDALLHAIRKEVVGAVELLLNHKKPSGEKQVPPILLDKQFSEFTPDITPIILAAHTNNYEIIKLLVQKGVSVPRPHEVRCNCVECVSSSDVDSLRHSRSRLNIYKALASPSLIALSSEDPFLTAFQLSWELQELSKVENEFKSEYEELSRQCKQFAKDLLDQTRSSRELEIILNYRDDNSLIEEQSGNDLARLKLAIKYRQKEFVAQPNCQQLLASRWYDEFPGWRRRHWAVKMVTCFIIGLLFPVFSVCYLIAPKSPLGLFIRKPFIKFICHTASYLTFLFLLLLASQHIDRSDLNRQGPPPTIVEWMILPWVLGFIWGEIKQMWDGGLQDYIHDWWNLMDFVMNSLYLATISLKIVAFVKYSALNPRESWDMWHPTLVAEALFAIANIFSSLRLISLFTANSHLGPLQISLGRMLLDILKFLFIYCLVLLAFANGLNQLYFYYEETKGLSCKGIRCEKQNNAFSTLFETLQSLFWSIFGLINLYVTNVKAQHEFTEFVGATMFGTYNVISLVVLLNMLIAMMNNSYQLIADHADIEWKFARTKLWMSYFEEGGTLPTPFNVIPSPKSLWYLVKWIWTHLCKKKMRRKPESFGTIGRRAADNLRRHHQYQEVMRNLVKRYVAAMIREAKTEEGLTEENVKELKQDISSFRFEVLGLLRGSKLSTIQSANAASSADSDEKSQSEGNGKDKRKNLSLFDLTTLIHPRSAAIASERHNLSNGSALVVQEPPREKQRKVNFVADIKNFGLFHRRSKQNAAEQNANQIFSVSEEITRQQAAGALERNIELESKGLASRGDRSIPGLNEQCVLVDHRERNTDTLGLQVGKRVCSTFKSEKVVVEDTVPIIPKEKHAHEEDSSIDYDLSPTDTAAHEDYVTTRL

[19] = target: Delta-type opioid receptor (Homo sapiens, UniProt P41143); experiment: Counterscreen for agonists of heterodimerization of the mu 1 (OPRM1) and delta 1 (OPRD1) opioid receptors: Luminescence-based cell-based high throughput dose response assay to identify agonists of OPRD1 homodimerization. [Related pubchem assays (depositor defined):AID504326, AID504355, AID504692, AID504904, AID504905]; type: functional
Delta-type opioid receptor, sequence (P41143 whole entry): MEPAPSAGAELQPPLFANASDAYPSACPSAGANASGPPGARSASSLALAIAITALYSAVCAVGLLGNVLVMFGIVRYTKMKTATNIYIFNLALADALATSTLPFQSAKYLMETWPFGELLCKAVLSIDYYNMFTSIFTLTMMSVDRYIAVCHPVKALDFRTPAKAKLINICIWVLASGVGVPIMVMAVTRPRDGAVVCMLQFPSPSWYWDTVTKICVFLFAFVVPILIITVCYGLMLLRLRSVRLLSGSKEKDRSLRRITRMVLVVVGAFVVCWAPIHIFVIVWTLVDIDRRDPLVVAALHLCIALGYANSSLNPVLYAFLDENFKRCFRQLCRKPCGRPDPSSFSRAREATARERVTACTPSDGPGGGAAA

[20] = target: 5-hydroxytryptamine receptor 5A (Homo sapiens, UniProt P47898); experiment: Counterscreen for agonists of OPRM1-OPRD1 heterodimerization: luminescence-based cell-based high throughput dose response assay to identify agonists of 5-hydroxytryptamine (serotonin) 5A receptor (HTR5A). [Related pubchem assays (depositor defined):AID504326, AID504355, AID504692, AID504904, AID504905]; type: functional
5-hydroxytryptamine receptor 5A, sequence (P47898 whole entry): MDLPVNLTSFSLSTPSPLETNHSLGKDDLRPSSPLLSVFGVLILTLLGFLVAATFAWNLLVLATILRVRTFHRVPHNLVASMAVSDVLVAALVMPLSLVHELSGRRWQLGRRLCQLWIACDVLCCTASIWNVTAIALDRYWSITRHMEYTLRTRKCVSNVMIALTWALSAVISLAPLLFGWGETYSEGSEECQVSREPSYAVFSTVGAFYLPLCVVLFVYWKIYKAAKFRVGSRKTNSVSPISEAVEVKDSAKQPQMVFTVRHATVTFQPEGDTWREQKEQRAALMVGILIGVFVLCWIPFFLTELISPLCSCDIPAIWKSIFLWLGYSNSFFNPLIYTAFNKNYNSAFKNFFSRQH

[21] = target: T3, Tyrosine-protein phosphatase non-receptor type 22 (Homo sapiens, UniProt Q9Y2R2); type: functional
T3 sequence (Q9Y2R2 whole entry): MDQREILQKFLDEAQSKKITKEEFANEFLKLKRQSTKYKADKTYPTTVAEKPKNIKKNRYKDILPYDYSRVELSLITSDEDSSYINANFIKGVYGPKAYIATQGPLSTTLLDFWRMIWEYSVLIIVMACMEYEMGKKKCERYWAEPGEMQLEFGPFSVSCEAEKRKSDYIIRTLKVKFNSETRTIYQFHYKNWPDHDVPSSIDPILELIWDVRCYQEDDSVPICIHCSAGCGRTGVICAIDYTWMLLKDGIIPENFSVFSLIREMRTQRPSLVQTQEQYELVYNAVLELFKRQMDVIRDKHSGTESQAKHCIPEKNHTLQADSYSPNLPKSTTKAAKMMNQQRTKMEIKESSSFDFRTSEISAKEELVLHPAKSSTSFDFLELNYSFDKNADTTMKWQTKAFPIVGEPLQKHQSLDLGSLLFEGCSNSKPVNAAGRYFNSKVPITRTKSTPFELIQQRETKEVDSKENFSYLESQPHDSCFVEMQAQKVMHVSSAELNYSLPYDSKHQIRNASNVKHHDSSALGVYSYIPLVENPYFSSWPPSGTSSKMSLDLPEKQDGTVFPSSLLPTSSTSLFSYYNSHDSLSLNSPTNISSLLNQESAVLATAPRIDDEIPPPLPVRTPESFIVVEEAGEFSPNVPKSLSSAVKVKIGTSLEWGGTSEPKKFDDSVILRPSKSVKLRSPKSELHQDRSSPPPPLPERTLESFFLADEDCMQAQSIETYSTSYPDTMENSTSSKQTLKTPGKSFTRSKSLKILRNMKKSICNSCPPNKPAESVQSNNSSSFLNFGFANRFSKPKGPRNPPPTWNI

[22] = target: T4, Tyrosine-protein phosphatase non-receptor type 7 (Homo sapiens, UniProt P35236); type: functional
T4 sequence (P35236 whole entry): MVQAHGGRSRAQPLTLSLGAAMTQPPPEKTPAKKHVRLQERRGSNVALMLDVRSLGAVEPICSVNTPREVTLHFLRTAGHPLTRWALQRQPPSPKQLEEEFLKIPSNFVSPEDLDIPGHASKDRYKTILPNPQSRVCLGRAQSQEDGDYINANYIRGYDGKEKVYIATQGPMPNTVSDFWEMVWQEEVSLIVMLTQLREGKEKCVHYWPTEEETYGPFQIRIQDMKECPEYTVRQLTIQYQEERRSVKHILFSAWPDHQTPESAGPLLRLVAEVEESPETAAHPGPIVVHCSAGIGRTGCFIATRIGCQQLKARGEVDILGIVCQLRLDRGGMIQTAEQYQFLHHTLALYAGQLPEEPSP

[23] = target: T3, Tyrosine-protein phosphatase non-receptor type 22; type: functional; remark: listed apart in the source
[24] = target: T5, Rac GTPase-activating protein 1 (Homo sapiens, UniProt Q9H0H5); experiment: blockers of MgcRacGAP-driven Rac1 GTP hydrolysis – biochemical, ADP Hunter fluorescence, primary and confirmatory, confirmation (AID 624330); type: functional
T5 sequence (Q9H0H5 whole entry): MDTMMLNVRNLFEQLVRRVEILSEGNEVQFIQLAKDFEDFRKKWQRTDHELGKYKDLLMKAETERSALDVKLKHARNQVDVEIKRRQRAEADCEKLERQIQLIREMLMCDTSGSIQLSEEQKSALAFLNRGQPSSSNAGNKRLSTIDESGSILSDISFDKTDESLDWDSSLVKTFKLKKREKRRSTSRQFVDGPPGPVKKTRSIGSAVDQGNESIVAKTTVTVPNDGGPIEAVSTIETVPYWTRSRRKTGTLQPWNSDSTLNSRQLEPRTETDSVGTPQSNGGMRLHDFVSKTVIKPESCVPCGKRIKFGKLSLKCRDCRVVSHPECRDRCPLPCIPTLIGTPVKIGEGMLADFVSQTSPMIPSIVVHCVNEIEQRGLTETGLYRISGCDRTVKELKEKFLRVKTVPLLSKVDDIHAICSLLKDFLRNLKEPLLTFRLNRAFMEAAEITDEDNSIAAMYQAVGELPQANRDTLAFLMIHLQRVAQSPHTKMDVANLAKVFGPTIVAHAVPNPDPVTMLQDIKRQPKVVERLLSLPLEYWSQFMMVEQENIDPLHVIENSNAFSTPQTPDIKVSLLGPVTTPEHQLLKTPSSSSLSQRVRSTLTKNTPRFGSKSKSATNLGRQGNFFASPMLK

CCC1CCCCN1C(=O)c1cc(COc2ccc3ncccc3c2)on1 (stereo unspecified)
IC50 [1]: > 80 µM (inactive) | IC50 [2]: 0.444 µM (active) | AC50 [3]: 0.46 µM (active) | AC50 [4]: 2.06 µM (active) | AC50 (INS1): 1.89 µM (active) | IC50 [5]: 4.58 µM (active) | AC50 [6]: 1.15 µM (active) | IC50 [7]: 0.339 µM (active)

CC(C)(C)NC(=O)c1nn(Cc2ccccc2)c(=O)c2ccccc12
AC50 (Escherichia coli [8]): 29.1 µM (active) | AC50 (Escherichia coli [9]): 53.2 µM (active)

Cc1onc(-c2ccccc2)c1C(=O)Nc1ncc([N+](=O)[O-])s1
IC50 (HEK293 [10]): 18 µM (active) | IC50 [11]: 4.88 µM (active) | IC50 (HEK293 [12]): 15.8 µM (active) | EC50 (HEK293 [13]): 2.25 µM (active) | IC50 (HEK293 [14]): 8.73 µM (active) | IC50 (Tumor necrosis factor): 6.31 µM (active) | EC50 [15]: 2.62 µM (active) | IC50 (HEK293 [16]): > 20 µM (inactive) | IC50 (HEK293 [17]): > 20 µM (inactive)

Cc1cc2nc(C)n(CCCNC(=O)Nc3cccc4ccccc34)c2cc1C
IC50 [2]: 1.7 µM (active) | AC50 [3]: 3.19 µM (active) | AC50 [4]: 28.5 µM (active) | AC50 [6]: 6.38 µM (active) | IC50 [7]: 1.99 µM (active)

COc1cccc(-c2nn3c(-c4ccccn4)nnc3s2)c1
AC50 (Escherichia coli [9]): 192 µM (active) | IC50 (H9c2): 16.5 µM (active)

Cc1ccccc1NC(S)=NCC(c1cccnc1)N(C)C (stereo unspecified)
EC50 (Mu-type opioid receptor): 12.5 µM (inactive) | EC50 [18]: 0.0427 µM (active) | EC50 [19]: 74.6 µM (inactive) | EC50 [20]: > 92.5 µM (inactive)

O=C(Nc1nccs1)c1ccc(S(=O)(=O)NCc2cccs2)cc1
IC50 [21]: > 79.4 µM (inactive) | IC50 [22]: > 79.4 µM (inactive) | IC50 [23]: > 79.4 µM (inactive)

Cc1[nH]c2ccccc2c1N=Nc1c(C)n(C)n(-c2ccccc2)c1=O
IC50 [21]: > 79.4 µM (inactive) | IC50 [24]: 41.1 µM (active) | IC50 [22]: > 79.4 µM (inactive) | IC50 [23]: > 79.4 µM (inactive)

Cc1ccc(C)c(NC(S)=NCC(c2ccccc2)N(C)C)c1 (stereo unspecified)
EC50 (Mu-type opioid receptor): 4.15 µM (active) | EC50 [18]: 0.188 µM (active) | EC50 [19]: 50 µM (inactive) | EC50 [20]: > 92.5 µM (inactive)
